From a melting point compilation (Tetko et al.; mined from patent text by program, amines drawn as free bases though some values may be those of a salt)

Row | melting point [°C] | SMILES
1 | 64 to 65 | CCOC(=O)c1c(O)c2cc(Br)ccc2c(=O)n1CC1CC1
2 | 145 | CC#CCOc1ccc(C(=O)N(C)C[C@@H](C(=O)NO)N2CCN(S(C)(=O)=O)CC2)cc1
3 | 274 to 280 | CC(C)(C)OC(=O)Nc1ccc(Nc2ncnc3[nH]cc(C(=O)c4ccccc4)c23)cc1
4 | 54 to 57 | CCOc1ccc(CCC=[N+]([O-])C(C)(C)C)cc1
5 | 113 to 116 | O=C(c1ccccc1)N1CCC(O)(c2ccccc2Cc2ccccc2)C1 (stereo not drawn)
6 | 139 to 141 | CCOC(=O)C(=O)Nc1c([N+](=O)[O-])sc2cc(Cl)ccc12
7 | 87 to 89 | CC(C)C(NC(=O)c1ccc(C(=O)NCc2ccc(Cl)cc2)cc1)C(=O)N1CCCC1C(=O)NC(C(=O)C(F)(F)F)C(C)C (mixture of isomers)
8 | 193 to 195 | CCC1(CC)Oc2cc(OC)c(C#N)cc2[C@@H](N2CCCC2=O)[C@@H]1O (relative stereo)
9 | 94 to 95 | COC(=O)c1cccc(CCN(C)CCCC(C#N)(C(=O)OC)c2ccc(OC)c(OC)c2)c1 (stereo not drawn)
10 | 90 to 93 | C=COC(=O)[C@H](Cc1ccccc1)NC(C)=O
11 | 258 | CCOC(=O)COc1ccc(OCc2ccccc2)cc1C(Nc1ccc(C(=N)NC(=O)OC(C)(C)C)cc1)C(=O)OCC (racemic)
12 | 164 to 165 | COC(=O)C1=C(C)NC(CO)=C(C(=O)OC)C1c1ccccc1[N+](=O)[O-] (stereo not drawn)
13 | 83 to 85 | CCCCS(=O)(=O)NCC1CCN(C(=O)OCc2ccccc2)CC1
14 | 66 to 68 | COC(=O)c1cc(C(=O)Cl)cc([N+](=O)[O-])c1
15 | 129 to 131 | O=S(=O)(CC1CCCCN1S(=O)(=O)c1ccccc1)c1ccc(Cl)cc1 (stereo not drawn)
16 | 205 to 206 | O=c1c2cccc3c2n(c(=O)n1CCO)-c1cc(C(F)(F)F)ccc1S3=O (stereo not drawn)
17 | 230 to 231 | CCOC(=O)CN1C(=O)C(NC(=O)Nc2cccc(C)c2)N=C(C)c2cccc(C)c21 (stereo not drawn)
18 | 154 to 156 | COCc1c[nH]c(-c2ccc(OCC(O)CO)cc2)n1 (stereo not drawn)
19 | 162 | O=C(NCCCCN1CCC(c2ccc3c(c2OCCO)CCCC3)CC1)c1ccc(-c2ccc(Cl)cc2)cc1
20 | 62 | C[Si](C)(C)C#Cc1ccc(Br)cc1
21 | 100 to 105 | CC(C)Cn1c(=O)n(C)c(=O)c2c(SCCCO)c(C(O)c3cccc4ccccc34)sc21 (stereo not drawn)

Row | melting point [°C] | SMILES
22 | > 250 | COc1cc2c(N)nc(N3CCN(c4nc5ccccc5s4)CC3)nc2c(OC)c1OC
23 | 133 | O=C1NC(=O)C(Cc2ccc(OCCOc3ccccc3)cc2)S1 (stereo not drawn)
24 | 260 | O=C(O)CCCOc1ccc2nc3c(cc2c1)CC(=O)N3
25 | 105 to 107 | O=C(O)CCCCN1CCC(C(O)(c2ccc(F)cc2)c2ccc(F)cc2)CC1
26 | 105 to 107 | COC(=O)c1cccc(C=Cc2cccc(C(=O)OC)c2)c1
27 | 191 to 193 | CCCCCCc1nc2ccccc2n1Cc1ccc(C(=O)O)cc1
28 | 118 to 120 | CC(C)=CCN1CCc2c(sc(N)c2C(=O)c2ccc(Cl)cc2)C1
29 | 116 to 117 | COC(=O)c1cc2cc(OCCCl)ccc2s1
30 | 162 to 165 | CC1(C)CC(NS(C)(=O)=O)c2cc(OCc3ccccc3)ccc2O1 (stereo not drawn)
31 | 204 | CCC1(C)CCN(C(=O)CN(C(=O)CNC(=O)Nc2cccc(C)c2)c2ccccc2)CC1
32 | 233 to 236 | O=C(Nc1cccc(-c2ccnc3c(C(=O)c4cccs4)cnn23)c1)NC1CCCCC1
33 | > 270 | CN1CCC(C2=C(C#N)C(c3cccc(C#N)c3Br)c3c[nH]nc3N2)CC1 (stereo not drawn)
34 | 200 to 202 | CC1CCN(c2ccc(C(=O)Nc3ccc4nc(CN5CCCC5)ccc4c3)cc2)CC1
35 | 176 | CCOC(=O)[C@](CC(=O)OC1CC(C)CCC1C(C)C)(NC(=O)OC(C)(C)C)C(N)=O (stereo partly drawn)
36 | 109 to 110 | COc1ccc2c(c1)C1=C(SCC3(CCN(CC(O)COc4ccc(Cl)cc4)CC3)O1)C(=O)C2=O (stereo not drawn)
37 | 110 to 113 | CC1=C(C(=O)OCCOc2ccccc2)C(c2ccccc2C(F)(F)F)c2c(ccnc2OC(C)C)N1 (stereo not drawn)
38 | 172 to 173 | COC(=O)CN1CCN(CC(=O)OC)[C@@H](C(N)=O)[C@H]1C(N)=O
39 | 211 | CC(=O)Nc1nc2c(Oc3cc(-c4ccc(C(F)(F)F)cc4)nc(N4CCN(C(=O)OC(C)(C)C)CC4)n3)cccc2s1
40 | 96 to 97 | COc1ccc2cc(C(C)=O)cc(F)c2c1
41 | 230 | CCC1(C)C(=CC=C2C(=O)c3ccccc3C2=C(C#N)C#N)N2CCc3cccc1c32 (stereo not drawn)

Continued, compound first:

Row | SMILES | melting point [°C]
42 | Cc1cccc(-c2n[nH]cc2-c2ccc(F)c(-c3cnn(CCN4CCOCC4)c3)c2)n1 | 124
43 | N#Cc1cc(Cc2ccccc2)cc(-c2cccc([N+](=O)[O-])c2)c1O | 148 to 149
44 | BrC(Br)(Br)c1nc2ccccc2s1 | 79 to 80
45 | Nc1nc(=O)n(C2C=CC(CO)O2)cc1F (stereo not drawn) | 206
46 | CC(C)(C)OC(=O)Cc1n[nH]c2c(=O)[nH]c3cc(Cl)ccc3c(=O)c12 | 226 to 229
47 | O=C1c2ccccc2-c2c1c1ccccc1c(=O)n2CCCNS(=O)(=O)c1ccccc1 | 216 to 218
48 | Cc1cc(O)cc2c1C(C)(C)CC2(C)C | 120
49 | O=C(c1cc(-c2ccccc2)ccn1)N(O)Cc1ccc(F)cc1 | 135 to 140
50 | O=[N+]([O-])c1ccc(C=Cc2ccccc2)cc1 | 46 to 50
51 | COC(=O)Nc1cnc2c(NC(=O)c3c(Cl)cccc3Cl)cccc2c1-n1ccnc1 | 236 to 238
52 | CC(C)NC(=NC(=O)OC(C)(C)C)N=C1NC(=O)C(=O)N1c1ccc(Cl)c(Cl)c1 | 227
53 | CCCCCc1nc(C#N)c(C#N)nc1O | 61 to 64
54 | N=C(Nc1ccc(C(F)(F)F)cc1)Nc1ncccc1OCc1ccccc1 | 154 to 155
55 | CCN(CC)CCCOc1ccc(-c2nnc(CSCCOc3ccccc3)o2)cc1 | 27 to 31
56 | O=c1[nH]c2ccc(Cl)cc2n1CC1CCCCC1 | 62
57 | O=c1[nH]c(=O)n([C@@H]2O[C@H](CO)[C@@H](O)[C@H]2O)cc1/C(I)=C\I | 107 to 109
58 | ClCc1nc(Cl)c2sccc2n1 | 101 to 102
59 | O=[N+]([O-])c1ccc(Cl)cc1Cc1ccccn1 | 69
60 | CNC(=O)Nc1cc(C(C)(C)C)c2c(c1)C(C)(C)CS2 | > 150

Row | SMILES | melting point [°C]
61 | N#Cc1cccc(Oc2ccnc(Cl)c2)n1 | 114
62 | Fc1ccccc1CO[C@H]1CO[C@@H](c2ccccc2)OC1 | 65 to 67
63 | COc1cc2c(cc1Nc1ncc(C(F)(F)F)c(Nc3ccc(N4CCOCC4)cc3OC)n1)CCOC(=O)N2C | 232 to 234
64 | Cc1cc(C)c(Cn2cc(C(=O)C(=O)NC3=CC(=O)OC3)c3ccccc32)c(C)c1 | 288 to 290
65 | COC1=CCC2=C(CC[C@H]3[C@@H]4CCC(=O)[C@@]4(C)CC[C@]23C)C1 | 155 to 158
66 | COc1ccc(-c2nnc3cc(-c4ccccc4)c(OCc4ncn(C)n4)nn23)cc1 | 205 to 206
67 | O=C1C(Cc2ccccc2)C(c2ccccc2)=Nc2ccccc2N1Cc1ccccc1 (stereo not drawn) | 173 to 174
68 | COc1ccc(OC)c2c1COC2O (stereo not drawn) | 156 to 158
69 | COCCOc1cc2nccc(Oc3cccc(O)c3)c2cc1C#N | 159 to 163
70 | FC(F)(F)c1ccc(C=CC(C=Cc2ccc(C(F)(F)F)cc2)=NNC2=NCCCN2)cc1 | 196 to 197
71 | CCCC1=C(C(=O)OCC)C(c2c(OC)ccc3ccccc23)c2c[nH]nc2N1 (stereo not drawn) | 188 to 191
72 | Cc1ccc2c(c1)[nH]c(=O)n2CCCl | 120
73 | COc1cccc2c1CC=CC2 | 44.3 to 45
74 | COc1cc(N)cnc1Cl | 93 to 94
75 | CS(=O)c1c(C(=N)NN)nn(-c2c(Cl)cc(C(F)(F)F)cc2Cl)c1N (stereo not drawn) | 210
76 | CCC(CC)Oc1nc(C)nc2c1[nH]c(=O)n2-c1c(C)cc(C)cc1C | 159 to 160
77 | O=C(NOC1CCCCO1)c1ccc(-c2ccc3ncnc(Nc4ccc(OCc5cccc(F)c5)c(Cl)c4)c3c2)s1 (stereo not drawn) | 250
78 | N#Cc1ccc(S(=O)(=O)Nc2ccc(Br)c3cc[nH]c23)cc1 | 214 to 216
79 | CC1C(=O)c2c(cc(OCC(=O)O)c(Cl)c2Cl)C1C (stereo not drawn) | 174 to 176

Row | SMILES | melting point [°C]
80 | O=c1[nH]cc(C=Cc2cccnc2)c2ccccc12 | 222 to 224
81 | CCN(CC)S(=O)(=O)c1cc(Cl)c(Cl)c(Cl)c1S | 96 to 99
82 | Cc1nc(-c2ccccc2)nc(-c2ccc([N+](=O)[O-])cc2)c1C(C)O (stereo not drawn) | 146 to 148
83 | CC(C)(C)C(=O)OC1CC(C)(C)N(OC(=O)C(C)(C)C)C(C)(C)C1 | 43 to 46
84 | CC(C)(C)OC(=O)N1C[C@@H]2OCc3cnnn3[C@H]2C1 | 155 to 157
85 | C=CCCCCCCCCC(=O)OC1CCC2C3CCC4=CC(=O)CCC4C3CCC12CC (stereo not drawn) | 87 to 88
86 | Cc1cc(COc2nn3c(-c4ccccc4F)nnc3cc2C2CCC2)no1 | 150
87 | CCN(CC)c1nc2[nH]c3c(c(=O)n2n1)SCCC3 | 308 to 310
88 | Cc1cc2nc(Cl)c3cnc(Cl)cc3n2n1 | 203
89 | CCCCc1nc2c(N)nc3c(c2n1CC(C)(C)OCCS(C)(=O)=O)CCCC3 | 146 to 148
90 | Cc1[nH]c(=O)c(C(N)=O)cc1-c1ccc2nccn2c1 | > 300
91 | Cc1cc2ncnn2c(N2CCN(C)CC2)n1 | 95 to 98
92 | COC(=O)c1cc(OC)cc2cc(-c3ccc(OC)c(F)c3)oc12 | 121 to 123
93 | CCNc1nc(-c2ccccc2)c(-c2ccccc2)nc1Cl | 115 to 122
94 | O=C1c2ccccc2CN1C1CCN(c2ccc(C(OCc3ccncc3)c3ccccc3)cc2)CC1 (stereo not drawn) | 77 to 81
95 | Cc1c(-c2ccc([N+](=O)[O-])cc2)sc2c1c(=O)c(OC(C)C)cn2Cc1c(F)cccc1F | 188 to 189
96 | Nc1ccccc1Nc1ccc(Nc2nccs2)cc1 | 184 to 186
97 | Cc1c(SCCCSCCn2c([N+](=O)[O-])cnc2C)ccnc1CNc1ncncc1Cl | 119 to 121
98 | CNC(=S)n1nc(N)nc1N | 176 to 178
